Experimental data as given in the supplement of paper PMC13380429.

Key:
Conditions in all cases: 72 h
Caco-2 [1] = experiment: cell viability relative to DMSO; higher = less toxic
Vero E6 [2] = experiment: as above
Calu-3 [3] = experiment: as above
HepG2 [4] = experiment: as above
U2OS [5] = experiment: as above
Caco-2 [6] = experiment: relative viability EC50 (midpoint between 100% and the lowest measured viability); higher = less toxic
Vero E6 [7] = experiment: as above
Calu-3 [8] = experiment: as above
HepG2 [9] = experiment: as above
U2OS [10] = experiment: as above
Caco-2 [11] = experiment: drug sensitivity score (DSS) for viability; higher = more toxic; extreme values may be limits of the assay
Vero E6 [12] = experiment: as above
Calu-3 [13] = experiment: as above
HepG2 [14] = experiment: as above
U2OS [15] = experiment: as above

Structure (SMILES)	cell viability (Caco-2 [1]; 1 nM) [%]	cell viability (Caco-2 [1]; 10 nM) [%]	cell viability (Caco-2 [1]; 100 nM) [%]	cell viability (Caco-2 [1]; 1000 nM) [%]	cell viability (Caco-2 [1]; 10000 nM) [%]	cell viability (Vero E6 [2]; 1 nM) [%]	cell viability (Vero E6 [2]; 10 nM) [%]	cell viability (Vero E6 [2]; 100 nM) [%]	cell viability (Vero E6 [2]; 1000 nM) [%]	cell viability (Vero E6 [2]; 10000 nM) [%]	cell viability (Calu-3 [3]; 1 nM) [%]	cell viability (Calu-3 [3]; 10 nM) [%]	cell viability (Calu-3 [3]; 100 nM) [%]	cell viability (Calu-3 [3]; 1000 nM) [%]	cell viability (Calu-3 [3]; 10000 nM) [%]	cell viability (HepG2 [4]; 1 nM) [%]	cell viability (HepG2 [4]; 10 nM) [%]	cell viability (HepG2 [4]; 100 nM) [%]	cell viability (HepG2 [4]; 1000 nM) [%]	cell viability (HepG2 [4]; 10000 nM) [%]	cell viability (U2OS [5]; 1 nM) [%]	cell viability (U2OS [5]; 10 nM) [%]	cell viability (U2OS [5]; 100 nM) [%]	cell viability (U2OS [5]; 1000 nM) [%]	cell viability (U2OS [5]; 10000 nM) [%]	relative viability EC50 (Caco-2 [6]) [µM]	relative viability EC50 (Vero E6 [7]) [µM]	relative viability EC50 (Calu-3 [8]) [µM]	relative viability EC50 (HepG2 [9]) [µM]	relative viability EC50 (U2OS [10]) [µM]	drug sensitivity score (Caco-2 [11])	drug sensitivity score (Vero E6 [12])	drug sensitivity score (Calu-3 [13])	drug sensitivity score (HepG2 [14])	drug sensitivity score (U2OS [15])
O=C(OCCOCCO)c1ccccc1Nc1cccc(C(F)(F)F)c1 [etofenamate]	98.1	91	92.4	90.8	96.1	100	103	103	89.3	81.7	108	95.6	95.8	82.5	96.3	96.2	105	92.4	101	104	102	95.2	98.7	100	96.3	> 10	> 10	> 10	> 10	> 10	0	1.5	0.1	0	0
Cc1oc(=O)oc1COC(=O)C1=C([C@H]2CCCO2)S[C@@H]2[C@@H]([C@@H](C)O)C(=O)N12 [faropenem-medoxomil]	95.6	93.4	96.8	93.2	97.9	94.7	94.1	97.6	92.4	97.9	99.3	94.7	102	93	98.8	103	99.2	98.1	95.1	100	98.8	96.3	98.3	98.2	99.9	> 10	> 10	> 10	> 10	> 10	0	0	0	0	0
CC(C)(Oc1ccc(C(=O)c2ccc(Cl)cc2)cc1)C(=O)O [fenofibric-acid]	92.4	106	91.9	96.2	105	102	102	101	95.4	97	90.5	94.5	101	102	98.9	91.3	96.6	90.9	94.9	90.8	103	100	97.5	100	95.5	> 10	> 10	> 10	> 10	> 10	0	0	0	0	0
Nc1nc(F)nc2c1ncn2[C@@H]1O[C@H](COP(=O)(O)O)[C@@H](O)[C@@H]1O [fludarabine-phosphate]	94.5	106	98.6	96.9	101	104	105	101	101	97.6	97.1	86.8	98.3	92.9	89.2	90.9	85.3	94.7	98.5	77.7	103	105	97.4	99.7	104	> 10	> 10	> 10	> 10	> 10	0	0	0	0	0
CC/C(=C(/CC)c1ccc(OP(=O)(O)O)cc1)c1ccc(OP(=O)(O)O)cc1 [fosfestrol]	84.6	93.5	97.2	94.5	104	94.2	92.8	92.4	94.8	108	87	84.9	92.5	108	117	102	97.6	105	97.1	107	93.4	105	102	102	105	> 10	> 10	> 10	> 10	> 10	0	0	0	0	0
